Results as given in PMC10385977, “On the Road towards Small-Molecule Programmed Cell Death 1 Ligand 1 Positron Emission Tomography Tracers: A Ligand-Based Drug Design Approach” (Pharmaceuticals, 2023).
Read-outs that look alike come from different tables or passages of the source. Positions of bridges follow the written chain, without caps; N, C: chain ends. Non-standard residues stand in square brackets, D forms with d. Residues, ends and D or L forms follow the SMILES beside them. NMeNle = CCCC[C@H](NC)C(=O)O; NMeA = CN[C@@H](C)C(=O)O; Sar = CNCC(=O)O

Legend:
[1] = HPLC lipophilicity measurement (µHPLC logPOWpH 7.4, logD); type: physicochemical; conditions: HPLC on an apHera column (retention time method); pH 7.4, HPLC method, mean ± SD
Method: An equilibration time of 2 min before measurements was set. Solvent “A” consisted of methanol (Merck KGaA, Darmstadt, Germany) and solvent “B” of 10 mM sodium phosphate buffer pH 7.4. […] The measurements of lipophilicity of precursors and products were performed according to the HPLC method of Donovan and Pescatore and Vraka et al.. […] Three logP values of the reference substances were taken from the literature, resulting in a mean logP value of the analyte ( μHPLC logPOWpH 7.4analyte) . Furthermore, the values were compared to calculated logP (clogP) and topological polar surface area (tPSA) values from ChemDraw 20.1 (PerkinElmer, Inc., Waltham, MA, USA) as well as clogDpH7.4 values from MarvinSketch 22.13 (ChemAxon Ltd., Budapest, Hungary).

[2] = In-solution stability in 1:1 DMSO/HEPES buffer (HPLC); conditions: for decomposition of the parent compound: 20 days; for remained intact: within the 20-day time period
human PD-L1 [3] = target: T1, human PD-L1 (Homo sapiens, UniProt Q9NZQ7); assay: HTRF PD-1/PD-L1 Binding Assay Kit (Cisbio); conditions: for BEI (binding efficiency index): BEI = −logIC50/(molecular weight/1000); for LE (ligand efficiency): LE = −1.4(logIC50)/Nheavy atoms; for LELP (ligand-efficiency-dependent lipophilicity efficiency): LELP = µHPLC logPOWpH 7.4/LE; for LLE (ligand lipophilicity efficiency): LLE = −logIC50 − µHPLC logPOWpH 7.4
T1 construct: purchased Cisbio Bioassays SAS 64PD1PEG
T1 sequence (Q9NZQ7 19-238 limits assumed): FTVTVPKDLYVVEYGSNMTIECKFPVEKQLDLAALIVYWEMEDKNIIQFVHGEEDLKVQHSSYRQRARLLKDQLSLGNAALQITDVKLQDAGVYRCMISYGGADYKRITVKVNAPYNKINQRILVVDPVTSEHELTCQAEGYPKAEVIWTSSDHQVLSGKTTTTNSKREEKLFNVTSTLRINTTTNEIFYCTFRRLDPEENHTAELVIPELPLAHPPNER

hPD-L1 = tested on: hPD-L1; parameters: method as in earlier work; conditions: HTRF assay; cited from earlier work
[4] = Metabolic stability in human liver microsomes; type: in vitro ADME; conditions: incubation for 40 min
Method: Metabolic stability was assessed using pooled, mixed gender human liver microsomes (HLMs) (Corning, Corning, NY, USA) according to the supplied protocol. In short, 15 µL of HLM (20 mg/mL), 15 µL of NADPH regenerating system solution A (Corning, Corning, NY, USA), 3 µL of solution B (Corning, Corning, NY, USA) and 257 µL of a 1:10 dilution of 10× PBS concentrate (MORPHISTO, Offenbach am Main, Germany) were pre-incubated at 37 °C for 10 min. Aliquots were drawn 0, 10, 20, 30 and 40 min after addition of 10 µL radiotracer, subsequently quenched with the same amount of MeCN, centrifuged for 4 min at 21,500× g and analyzed by HPLC setup 3.

human PD-L1 [5] = target: T1, human PD-L1; parameters: method as in doi:10.14205/2309-4435.2013.01.01.6

Compound	chromatographic logD [1]	decomposition of the parent compound [2]	BEI (binding efficiency index) (human PD-L1 [3])	LE (ligand efficiency) (human PD-L1 [3])	LELP (ligand-efficiency-dependent lipophilicity efficiency) (human PD-L1 [3])	LLE (ligand lipophilicity efficiency) (human PD-L1 [3])	IC50 (human PD-L1 [3]; read-out: IC50 (This Work))	remained intact [2]	also measured
COc1nc(OCc2cccc(-c3ccccc3)c2C)ccc1CNCCNC(C)=O [Substance 2, N-(2-(((2-methoxy-6-((2-methyl-[1,1′-biphenyl]-3-yl)methoxy)pyridin-3-yl)methyl)amino)ethyl)acetamide, reference compound]	3.88 ± 0.12	less than 2%							
COc1nc(OCc2cccc(-c3ccccc3)c2C)ccc1CNCCN(C)C(C)=O [Substance 2b, N-(2-(((2-Methoxy-6-((2-methyl-[1,1′-biphenyl]-3-yl)methoxy)pyridin-3-yl)methyl)amino)ethyl)-N-methylacetamide]	3.97 ± 0.13		14.5	0.27 kcal/mol/Heavy Atom	14.4	2.3	524 ± 67 nM	over 85%	
COc1cc(OCc2cccc(-c3ccccc3)c2C)cc(OC)c1CN1CCCC[C@H]1C(=O)O [Substance 1, (S)-1-(2,6-dimethoxy-4-((2-methyl-[1,1′-biphenyl]-3-yl)methoxy)benzyl)piperidine-2-carboxylic acid, reference compound]	3.16 ± 0.16							over 85%	IC50 (hPD-L1): […]
COC(=O)[C@@H]1CCCCN1Cc1c(OC)cc(OCc2cccc(-c3ccccc3)c2C)cc1OC [Substance 1a, Methyl (S)-1-(2,6-Dimethoxy-4-((2-methyl-[1,1′-biphenyl]-3-yl)methoxy)benzyl)piperidine-2-carboxylate]	4.9 ± 0.27		10.7	0.20 kcal/mol/Heavy Atom	24.0	0.3	5760 ± 613 nM	over 85%	
COc1nc(OCc2cccc(-c3ccccc3)c2C)ccc1CN([11CH3])CCNC(C)=O [[^11C]2a]									intact tracer [4]: ~ 90%
CCCC[C@H]1C(=O)N(C)[C@@H](CCCC)C(=O)N[C@@H](CCCNC(=N)N)C(=O)N[C@H](C(=O)NCC(N)=O)CSCC(=O)N[C@@H](Cc2ccccc2)C(=O)N(C)[C@@H](C)C(=O)N[C@@H](CC(N)=O)C(=O)N2CCC[C@H]2C(=O)N[C@@H](Cc2c[nH]cn2)C(=O)N[C@@H](CC(C)C)C(=O)N(C)CC(=O)N[C@@H](Cc2c[nH]c3ccccc23)C(=O)N[C@@H](CO)C(=O)N[C@@H](Cc2c[nH]c3ccccc23)C(=O)N1C [Inhibitor 3, reference compound] ({CH2CO}-F[NMeA]NPHL[Sar]WSW[NMeNle][NMeNle]RCG-NH2; thioether N-14; N-terminus and C-terminus assumed)									IC50 (human PD-L1 [3]): 113 ± 45 nM; IC50 (human PD-L1 [5]; read-out: IC50 (Cisbio); HTRF assay, vendor value; cited from earlier work): 146 nM
COc1nc(OCc2cccc(-c3ccccc3)c2C)ccc1CN(CCNC(C)=O)C(=O)OCCF [Substance 2d, 2-Fluoroethyl (2-Acetamidoethyl)((2-methoxy-6-((2-methyl-[1,1′-biphenyl]-3-yl)methoxy)pyridin-3-yl)methyl)carbamate]	4.23 ± 0.17	less than 2%	9.9	0.19 kcal/mol/Heavy Atom	22.2	0.8	9880 ± 1390 nM		dose-response curve in HTRF assay (human PD-L1 [3]; HTRF binding curves): No full dose response curves were observed
COc1cc(OCc2cccc(-c3ccccc3)c2C)cc(OC)c1CN1CCCC[C@H]1C(=O)OCCF [Substance 1b, 2-Fluoroethyl (S)-1-(2,6-Dimethoxy-4-((2-methyl-[1,1′-biphenyl]-3-yl)methoxy)benzyl)piperidine-2-carboxylate]	5.02 ± 0.28		11.4	0.22 kcal/mol/Heavy Atom	22.9	0.9	1440 ± 144 nM	over 85%	
Atezolizumab: anti-PD-L1 antibody, positive control (MedChemExpress)									IC50 (human PD-L1 [3]; HTRF PD-1/PD-L1 binding assay, mean ± SD, three experiments, read-out: IC50 (This Work)): 4.07 ± 0.42 nM; IC50 (human PD-L1 [5]; HTRF assay, vendor value; read-out: IC50 (Cisbio); cited from earlier work): 3.84 nM

Further lines, with some results ahead:

chromatographic logD [1]	decomposition of the parent compound [2]	BEI (binding efficiency index) (human PD-L1 [3])	LE (ligand efficiency) (human PD-L1 [3])	LELP (ligand-efficiency-dependent lipophilicity efficiency) (human PD-L1 [3])	LLE (ligand lipophilicity efficiency) (human PD-L1 [3])	IC50 (human PD-L1 [3]; read-out: IC50 (This Work))	remained intact [2]	Compound	also measured
4.28 ± 0.18	less than 2%	13.1	0.25 kcal/mol/Heavy Atom	17.1	1.6	1310 ± 185 nM		COc1nc(OCc2cccc(-c3ccccc3)c2C)ccc1CN(C)CCN(C)C(C)=O [Substance 2c, N-(2-(((2-Methoxy-6-((2-methyl-[1,1′-biphenyl]-3-yl)methoxy)pyridin-3-yl)methyl)(methyl)amino)ethyl)-N-methylacetamide]	
4.13 ± 0.16	less than 2%	14.7	0.28 kcal/mol/Heavy Atom	14.8	2.2	430 ± 62 nM		COc1nc(OCc2cccc(-c3ccccc3)c2C)ccc1CN(C)CCNC(C)=O [Substance 2a, N-(2-(((2-Methoxy-6-((2-methyl-[1,1′-biphenyl]-3-yl)methoxy)pyridin-3-yl)methyl)(methyl)amino)ethyl)acetamide]	fold reduced affinity compared to lead structure 2 (human PD-L1 [3]; ratio of HTRF IC50 values): 4.3 fold
